Source: patent publication US8389792B2, “Compositions and methods for the treatment and prevention of ulcerative colitis and colon cancer and screening methods to identify same” (Cornell University, priority 2007, dated 2013)
“Also recorded” adds a separate entry of the source.

Assays:
Proteus mirabilis [1] = assay: Quantitative fecal culture of Gram-negative aerobes on MacConkey's medium; format: in vivo; settings: for fecal levels of P. mirabilis after antibiotic: 4-week old TRUC mice, feces cultured 1d before and 1d after antibiotic, limit of detection 4.4 log10 CFU/g
Description: (§1) Individual mice were placed in autoclaved plastic cages. Fecal pellets were transferred immediately upon expulsion into capped microfuge tubes. 4-6 pellets were collected per mouse per time point. All Rag2^−/− mice in FIG. 2F were sampled twice over a 3d period for each weekly time point. Pellets were resuspended in sterile PBS and 10-fold serial dilutions were generated, plated on MacConkey's medium, and incubated in ambient air at 37° C. overnight. Biochemical assays with the API-20E panel (bioMerieux) confirmed that colony morphology correlated with Klebsiella pneumoniae, Proteus mirabilis, or E. coli: therefore, these organisms were subsequently identified based on their colony morphotypes.
(§2) The lower limit of detection for these studies was 10^4.4 cfu/gram fecal dry weight. A minimum of 30 colonies or a maximum of 300 colonies was counted at a given dilution and the serial dilution had to appropriately reflect the colony counts for the quantitative counts to pass our quality control standards.
(§3) Mice were treated with the following antibiotics dissolved in their autoclaved drinking water as indicated: ampicillin (1 g/L; Roche), vancomycin (500 mg/L; Sigma), neomycin sulfate (1 g/L; Sigma), metronidazole (1 g/L; Sigma, solubilized with 15 ml of 0.1N acetic acid/L), and gentamicin (2 g/L; Cell Gro); and fluid intake monitored.
(§4) Dextran sulfate sodium (M.W. 40-50,000; USB Cat# 14489) was dissolved in drinking water at a final concentration of 4% (w/v) and provided for 7d.
(§5) anti-TNF-α (clone TN3-19.12), a hamster anti-mouse TNF-α neutralizing IgGl antibody and control Ab (hamster anti-GST IgGl) were purchased from Leinco Technologies. Mice were injected with these reagents (15 mg/kg) on a weekly basis for four weeks (Garrett et al., 2007).
(§6) Peripheral lymph nodes were harvested and cell suspensions were generated as previously described. Fluorescence activated cell sorted C114^+CD62L^h,CD25^+ cells were collected and resuspended in PBS. 75,000 cells were injected per mouse. An equivalent amount of PBS was injected in the control group. 10 mice were injected with T-regulatory cells and nine mice with PBS. All mice were 4 weeks of age at the time of injection (Garrett et al., 2007). This experiment was stopped when the mice were 12 weeks old (as opposed to 14 weeks of age in the TNF-a blockade experiment), because two mice in the control group became quite moribund from their colitis, and euthanasia was indicated as per our animal protocol.

Klebsiella pneumoniae [2] = assay: as above; format: in vivo; settings: for fecal levels of K. pneumoniae after antibiotic: 4-week old TRUC mice, feces cultured 1d before and 1d after antibiotic, limit of detection 4.4 log10 CFU/g
Description: as §1, §2, §3, §4, §5, §6

[3] = system: T-bet−/−×RAG2−/− (TRUC) mice; assay: Histologic colitis scoring of colons from treated TRUC mice; format: in vivo, mouse; settings: for TRUC colitis (histologic colitis scores, in vivo antibiotic sensitivity): TRUC mice treated four weeks with single antibiotic in drinking water
Excerpt: For studies of the progeny of antibiotic treated animals, progeny were weaned at 21 days and examined six weeks after weaning. These animals had no exposure to antibiotics after weaning.
Colons were removed from euthanized mice and dissected free from the anus to distal to the cecum. Colonic contents were removed and colons were cleaned with phosphate buffer saline or Hanks' balanced salt solution prior to fixation in 4% PFA or 10% neutral buffered formalin (NBF) followed by routine paraffin embedding. After paraffin embedding, […] sections were cut and stained with hematoxylin and eosin or as noted.
Sections were examined and the degree of colitis was blindly scored. Each of four histologic parameters were scored as absent (0), mild (1), moderate (2), or severe (3): mononuclear cell infiltraton, polymorphonuclear cell infiltration, epithelial hyperplasia, and epithelial injury, similar to previous studies (Neurath et al., 2002b). Colons from dextran sodium sulfate treated mice were scored using the following parameters scored on a scale of 0-4: percentage of colon involved by inflammation, percentage of crypt loss, presence of lymphoid follicles, edema, erosions, and density of inflammatory cells. The scores for the individual parameters were summed to give a total severity score. […]
Mice were treated as described previously (Fagarasan, S., et al. (2002). Science 298, 1424-1427; Rakoff-Nahoum, S., et al. (2004). Cell 118, 229-241). Alterations are as noted: in brief, animals were provided ampicillin (1 g/L; Roche), vancomycin (1 gm/L; Henry Schein, Inc. (Hospira, Inc.)), neomycin sulfate (1 g/L; Sigma (Teva Pharmaceuticals)), and metronidazole (1 g/L; Sigma) dissolved in their autoclaved drinking water and their fluid intake was monitored. […]
Mice were treated with the following antibiotics dissolved in their autoclaved drinking water as indicated: ampicillin (1 g/L; Roche), vancomycin (500 mg/L; Sigma), neomycin sulfate (1 g/L; Sigma), metronidazole (1 g/L; Sigma, solubilized with 15 ml of 0.1N acetic acid/L), and gentamicin (2 g/L; Cell Gro); and fluid intake monitored. […]

Proteus mirabilis [4] = assay: TNF-α bacterial co-culture (growth kinetics); format: cell-based; settings: in vitro mono-culture, 6 h, colony counts at 2 h intervals
Description: (§7) TNF-a (final concentration 100u,g/mL culture medium), or PBS alone, was added to cultures of the designated microbes and bacterial concentrations (efu/ml) were followed during a 6 h incubation (37° C. with agitation in ambient air) at 2 h intervals. Bacteria were cultured in Luria Broth and plated on MacConkey's medium.

Klebsiella pneumoniae [5] = assay: TNF-α bacterial co-culture (growth kinetics); format: cell-based; settings: in vitro mono-culture, 6 h, colony counts at 2 h intervals
Description: as §7

[6] = 8 week-old WT and Rag2−/− mice, 4% in drinking water one week, samples before and 1d after

Compound | fecal levels of P. mirabilis after antibiotic (Proteus mirabilis [1]) | fecal levels of K. pneumoniae after antibiotic (Klebsiella pneumoniae [2]) | TRUC colitis (histologic colitis scores, in vivo antibiotic sensitivity) [3] | also measured
gentamicin | below our limit of detection | below our limit of detection | able to ameliorate and cure TRUC | 
CN[C@H](CC(C)C)C(=O)N[C@H]1C(=O)N[C@@H](CC(N)=O)C(=O)N[C@H]2C(=O)N[C@H]3C(=O)N[C@H](C(=O)N[C@H](C(=O)O)c4cc(O)cc(O)c4-c4cc3ccc4O)[C@H](O)c3ccc(c(Cl)c3)Oc3cc2cc(c3O[C@@H]2O[C@H](CO)[C@@H](O)[C@H](O)[C@H]2O[C@H]2C[C@](C)(N)[C@H](O)[C@H](C)O2)Oc2ccc(cc2Cl)[C@H]1O [vancomycin] |  |  | does not; also recorded: neither abolished colitis | 
TNF-a |  |  |  | growth kinetics of P. mirabilis in vitro (Proteus mirabilis [4]): did not affect the growth kinetics; growth kinetics of K. pneumoniae in vitro (Klebsiella pneumoniae [5]): did not affect the growth kinetics
Dextran sulfate sodium |  |  |  | culturable P. mirabilis in fecal microbiota after dextran sulfate sodium (Proteus mirabilis [1]; [6]): did not detect; culturable K. pneumoniae in fecal microbiota after dextran sulfate sodium (Klebsiella pneumoniae [2]; [6]): did not detect
Cc1ncc([N+](=O)[O-])n1CCO [metronidazole] | below our limit of detection | below our limit of detection |  | TRUC colitis (histologic scores) ([3]; six week old TRUC mice, antibiotics 1 g/L each in drinking water for six weeks): cured the colitis
